This is an account of results in ChEMBL document CHEMBL3988442, “University of Dundee, Small-Polar-MMV Screening Library” (2021).

The target in the assay is T1, Coenzyme A biosynthesis bifunctional protein CoaBC (Mycobacterium tuberculosis (strain ATCC 25618 / H37Rv), UniProt P9WNZ1).
T1 sequence (P9WNZ1 whole entry): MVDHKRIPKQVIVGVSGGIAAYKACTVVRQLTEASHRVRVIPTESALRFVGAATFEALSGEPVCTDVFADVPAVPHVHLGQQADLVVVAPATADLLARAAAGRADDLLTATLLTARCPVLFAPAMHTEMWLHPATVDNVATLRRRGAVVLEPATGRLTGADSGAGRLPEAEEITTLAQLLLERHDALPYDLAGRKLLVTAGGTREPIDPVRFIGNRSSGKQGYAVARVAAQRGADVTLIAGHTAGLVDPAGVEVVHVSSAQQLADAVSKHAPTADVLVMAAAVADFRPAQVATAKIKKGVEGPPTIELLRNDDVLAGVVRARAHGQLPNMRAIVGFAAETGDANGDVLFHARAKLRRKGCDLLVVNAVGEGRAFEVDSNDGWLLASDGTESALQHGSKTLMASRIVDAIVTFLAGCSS
Description: Biomol Green assay for MtCoaBC inhibitor, OD650 read. It counts as functional.
`CCc1nnc(SCc2nonc2C)n1C1CC1`: the IC50 is over 30.2 µM. In the case of `O=C(CCCC1CCCC1)NS(=O)(=O)CC1CC1` it was over 30.2 µM. In the case of `CCN(C)C[C@@H]1CN(C(=O)NC2CCCCC2)C[C@@H]1CO` it was over 30.2 µM; in that of `COC(=O)c1ccc(S(=O)(=O)N2CCC(Oc3cccnn3)CC2)cc1`, over 30.2 µM; in that of `COc1ccccc1N1CCN(CC(=O)NC(C)c2ccco2)CC1` (stereo unspecified), over 30.2 µM. In the case of `Fc1cccc(-c2nc(CN3CCCC(Cn4cncn4)C3)co2)c1` (stereo unspecified) it was over 30.2 µM; in that of `O=C(NCCC(=O)N1CCCC1)c1ccc(SCc2cccnc2)cc1`, over 30.2 µM; in that of `Cc1cnn(CC2CCCN2Cc2nnc(C)o2)c1` (stereo unspecified), over 30.2 µM. Take `Cc1cc(NC(=O)CN2CCc3cnc(C(C)C)nc3C2)on1`: the IC50 was over 30.2 µM. For `Cc1ccc(CN2CCN(C3CCCC3)CC2CCO)o1` (stereo unspecified) the value was over 30.2 µM; for `Cc1nn(C)cc1S(=O)(=O)N[C@@H]1CCC[C@@H](N2CCCC2)[C@@H]1O`, over 30.2 µM; for `O[C@]12CCNC[C@H]1CN(c1ncccc1Cl)CC2`, over 30.2 µM. In the case of `COc1ccc(CNC(=O)NC(C)(CO)C2CC2)c(C(F)(F)F)c1` (stereo unspecified) it was over 30.2 µM. Compound `Cc1ccc(NC2CCN(C(=O)c3cnn(C(C)(C)C)c3)CC2)nn1` showed an IC50 of over 50.1 µM. In the case of `CCc1ncncc1C(=O)NCCNS(=O)(=O)c1ccccc1` it was over 50.1 µM; in that of `CNC(=O)[C@@]12CCC3(CCN(S(=O)(=O)C4CC4)CC3)[C@@H]1CN(C(C)=O)C2`, over 30.2 µM. For `O=C(NCc1ccccc1)C1CN(c2ccccn2)CCO1` (stereo unspecified) the value was over 30.2 µM. With `O=C(NCC(O)c1ccsc1)c1sccc1OC(F)F` (stereo unspecified), the IC50 is over 30.2 µM. In the case of `Cc1cc(C)cc(-n2ncc3c2CCCC3N)c1` (stereo unspecified) it was over 30.2 µM; in that of `Cc1cccc(CNC(=O)NCC2CCN(Cc3ncc[nH]3)C2)c1` (stereo unspecified), over 30.2 µM; in that of `Cc1ccc(NC2CCN(C(=O)c3cccc4[nH]ncc34)CC2)nn1`, over 30.2 µM. In the case of `Cn1cccc1CN1CCc2ncnc(-c3cccnc3)c2CC1` it was over 30.2 µM.

`O=c1n(CC2COCCO2)nc(CC2CCNCC2)n1-c1ccccc1` (stereo unspecified): the IC50 is over 30.2 µM. In the case of `Cc1cccc(CS(=O)(=O)NCc2nn(C)c3c2COCC3)c1`, the concentration for half-maximal inhibition (IC50) is over 30.2 µM. For `Cc1nc(C)c(CC(=O)N2CCC(c3ccn4nccc4n3)CC2)s1` the value was over 30.2 µM. For `CN(Cc1ccccc1)C(=O)Cn1nc(N2CCOCC2)ccc1=O` the value was over 30.2 µM; for `CN1CCCC1c1ccc(N2CCOCC2)cn1` (stereo unspecified), over 30.2 µM.

`CS(=O)(=O)c1ccc(-c2c[nH]c([C@@H]3COCCN3)n2)cc1` gave an IC50 of over 30.2 µM. For `Cc1cc(C)n(C2CN(c3ncnc4c3CCC4)C2)n1`, the half-maximal inhibitory concentration (IC50) is over 30.2 µM. In the case of `CCC(=O)NCCc1cc2nc(-c3ccncc3)ccn2n1` it was over 30.2 µM; in that of `Cc1nn(C)c(Cl)c1C1CCCN1C(=O)c1ccncc1` (stereo unspecified), over 30.2 µM; in that of `Cc1ccc(C(=O)O)c(N2Cc3cnc(C(C)(C)C)nc3C2)n1`, over 30.2 µM.

Consider `Cc1nc(C2CCCN(C(=O)c3c(C)nn4cccnc34)C2)no1` (stereo unspecified), for which the IC50 is over 30.2 µM.

With `CC(NC(=O)CSCC(N)=O)c1ccc(Oc2ccccc2)cc1` (stereo unspecified), the IC50 was over 30.2 µM. In the case of `O=C(NCCn1nc2ccccn2c1=O)c1cc[nH]n1` it was over 30.2 µM; in that of `CN(Cc1nccs1)C1CCN(c2cccc(-c3cscn3)c2)CC1`, over 30.2 µM; in that of `CCCS(=O)(=O)NCC(O)c1c(Cl)cccc1Cl` (stereo unspecified), over 30.2 µM. In the case of `O=C(CCNc1ccccc1)NC1CCN(C(=O)C2CCCCC2)CC1` it was over 30.2 µM; in that of `Cc1nc2c(C(=O)N[C@H]3C[C@H]4CN(C)CCN4C3)cccc2[nH]1`, over 30.2 µM; in that of `Cc1[nH]ncc1C(=O)NCC(CO)Cc1ccc(Cl)cc1` (stereo unspecified), over 30.2 µM. In the case of `CC(C)c1nc(CNC2CCN(C(=O)OC(C)(C)C)CC2)cs1` it was over 30.2 µM; in that of `CN1CCOC(CNCc2cccc(OC(F)(F)F)c2)C1` (stereo unspecified), over 30.2 µM. In the case of `O=C1N(Cc2ccccn2)C[C@H]2CN(C3CCC3)CCN12`, the IC50 was over 30.2 µM. The compound `CN(C)c1ncc(CN2CCCC(Nc3ccc4c(c3)OCCO4)C2)s1` (stereo unspecified) had an IC50 of over 30.2 µM. As for `Cc1nc(C)n(CC2CN(S(C)(=O)=O)Cc3nccn3C2)n1` (stereo unspecified), the IC50 was over 30.2 µM.

The compound `CC(C)NC1CCN(CCc2ccc3c(c2)CCO3)CC1` had a half-maximal inhibitory concentration (IC50) of over 50.1 µM. For `Cc1csc(CCNCc2cnc3c(c2)c(C)nn3C)n1` the value was over 30.2 µM. In the case of `CN(Cc1ccc(F)cc1)C(=O)NCc1nnc2n1CCC2` it was over 30.2 µM. For `CC[C@@H]1N(Cc2cc(OC)cc(OC)c2)CCC[C@]12CCC(=O)N2C` the value was over 30.2 µM; for `NC(=O)C1CN(C(=O)Nc2ccccc2Oc2ccccc2Cl)CCO1` (stereo unspecified), over 30.2 µM; for `CCn1ncnc1C(C)NC(=O)CC1CCN(C(C)C)CC1` (stereo unspecified), over 30.2 µM. `Cc1cc(C(F)(F)F)nn1CC(C)C(=O)Nc1ccccn1` (stereo unspecified): the concentration for half-maximal inhibition (IC50) is over 30.2 µM.

For `COc1cccc(Cc2nc3c([nH]2)CC(C)(C)CNC3=O)c1OC`, the IC50 was over 30.2 µM. For `COc1cccc(N2CCC(CNCc3cccc(C#N)c3)C2)c1` (stereo unspecified) the value was over 30.2 µM; for `CC(C)C(C)(C#N)NC(=O)Cn1cc(C(N)=O)c(-c2ccccc2)n1` (stereo unspecified), over 30.2 µM. For `CCCc1noc(C(C)N2CCN(CCn3ccccc3=O)CC2)n1` (stereo unspecified) the value was over 30.2 µM; for `Cn1cc(CN2CCCC(c3nccnc3-c3cccc(F)c3)C2)cn1` (stereo unspecified), over 30.2 µM; for `COc1ccccc1N1CCC(CNCc2ccc(C#N)cc2)C1` (stereo unspecified), over 30.2 µM. Take `COc1ccc(C2CN(c3cc(C)ncn3)CCN2C(C)=O)cc1` (stereo unspecified): the IC50 is over 30.2 µM. In the case of `O=C1CN(Cc2cn(CC3CCCN(C4CCSCC4)C3)nn2)CCN1` (stereo unspecified) it was over 30.2 µM; in that of `CC(NCCCN1CCCC1=O)c1cc(Br)ccc1F` (stereo unspecified), over 30.2 µM; in that of `O=C(Cc1cccc2ccccc12)N1CCC(Nc2cccnn2)CC1`, over 30.2 µM. In the case of `CC(C)=CCn1ncc(N2CCOCC2)cc1=O` it was over 30.2 µM; in that of `COc1ccccc1CNC(=O)N1CCN(Cc2cc(C)on2)CC1`, over 30.2 µM.

With `CC1CCN(CCNC(=O)c2ccn(-c3ccc(F)cc3)n2)CC1`, the half-maximal inhibitory concentration (IC50) was over 30.2 µM. In the case of `O=C(c1ccc(-n2cnnn2)cc1)N1CCCC(n2ccnc2)C1` (stereo unspecified) it was over 30.2 µM; in that of `Cc1cc(C)nc(N2CCCC(C(=O)Nc3n[nH]c(C(C)C)n3)C2)n1` (stereo unspecified), over 30.2 µM. For `Cc1cnc(NC(=O)C(C)Oc2ccc3c(c2)OCO3)s1` (stereo unspecified) the value was over 30.2 µM; for `Cc1n[nH]c(C)c1NC(=O)CN1CCN(c2nccs2)C(C)C1` (stereo unspecified), over 30.2 µM. In the case of `CC(C(=O)N1CCCC1)S(=O)(=O)Cc1noc(C(C)(C)C)n1` (stereo unspecified) it was over 30.2 µM; in that of `CS(=O)(=O)NC1CCN(C(=O)NCCc2ccccc2F)CC1`, over 30.2 µM. On to `Cc1cccc(CN2CC3(CCN(C(N)=O)CC3)OCC2=O)n1`, for which the IC50 is over 30.2 µM. For `CC(NCC1(N(C)C)CCOCC1)c1ccc(SC(F)F)cc1` (stereo unspecified) the value was over 30.2 µM. In the case of `Cc1c(CN2CCCC(O)C2)[nH]c2ccc(F)cc12` (stereo unspecified) it was over 30.2 µM. For `Cc1nc(-c2cc(C(=O)O)co2)cs1` the value was over 30.2 µM; for `CCc1noc(C(C)N2CCN(CCN3CCCC3=O)CC2)n1` (stereo unspecified), over 30.2 µM. `Fc1ccc(-c2nc(CN3CCCCC3Cn3cncn3)co2)cc1` (stereo unspecified) gave an IC50 of over 30.2 µM. For `COc1c(C2SCC(=O)Nc3[nH]ncc32)cc2c(c1OC)OCO2` (stereo unspecified) the value was over 30.2 µM. In the case of `COc1ccc(CN2CCC3(CCCN(C)C3=O)C2)c(OC)c1C` (stereo unspecified) it was over 30.2 µM; in that of `O=C1CC(c2ccc(C(=O)O)cc2)c2c(sc3c2CCCC3)N1` (stereo unspecified), over 50.1 µM; in that of `Cc1ccc(OCCC(=O)N2CCOCC2c2ncon2)cc1C` (stereo unspecified), over 30.2 µM.

On to `Cn1ccnc1-c1cn(Cc2cn3c(n2)SCC3)nn1`, for which the IC50 is over 30.2 µM. In the case of `O=C(c1cc2cc(F)ccc2[nH]1)N1CCCCC1Cn1cccn1` (stereo unspecified) it was over 30.2 µM; in that of `Cc1cnn(CC2CCCN2Cc2nnc(-c3ccccc3)o2)c1` (stereo unspecified), over 30.2 µM; in that of `CCc1ncncc1C(=O)NCCNS(=O)(=O)c1ccc(C)cc1`, over 30.2 µM. Consider `CN(C)c1ccc(C(=O)N2CCC(c3cc4cnccc4[nH]3)CC2)cc1`, for which the 50% inhibitory concentration (IC50) was over 30.2 µM. For `CN1C(=O)C2(CCN(c3nccc4occc34)CC2)c2ccccc21` the value was over 30.2 µM. Consider `COCCN(Cc1cnn(C)c1)CC1CCOC1` (stereo unspecified), for which the IC50 is over 30.2 µM.

`Nc1ccncc1-n1cc(CCO)cn1` showed an IC50 of over 30.2 µM.

Compound `Cc1ccc(C(=O)O)cc1CNC(=O)CN1CC[C@](C)(O)C(C)(C)C1` gave a half-inhibitory concentration (IC50) of over 30.2 µM. `CCN1CCCC(O)(CN(C)Cc2ccc(C)o2)C1` (stereo unspecified): the concentration for half-maximal inhibition (IC50) is over 30.2 µM. `CN(CC(N)=O)C(=O)c1csc(Br)c1`: the IC50 was over 30.2 µM. Compound `O=C(c1cccnc1SC/C=C/c1ccccc1)N1CCOCC(O)C1` (stereo unspecified) showed a half-inhibitory concentration (IC50) of over 30.2 µM. For `O=S(=O)(NC1CCCCC12OCCO2)c1cc(F)cc(F)c1` (stereo unspecified) the value was over 30.2 µM. In the case of `O=C(c1ccnc(C2CCNCC2)c1)N1CCCC(CO)C1` (stereo unspecified) it was over 30.2 µM. For `COCCCN(Cc1ccccn1)S(=O)(=O)N(C)C` the value was over 30.2 µM. Regarding `CS(=O)(=O)N1CCN(C(=O)c2cc(-c3ccc(Br)s3)n[nH]2)CC1`, the IC50 was over 30.2 µM. For `CCC(=O)N1CCCCC1c1nc(O)c2c(n1)CN(S(=O)(=O)CC)CC2` (stereo unspecified) the value was over 30.2 µM; for `CSc1nc(C)cc(N2CCC(c3ncc[nH]3)CC2)n1`, over 30.2 µM; for `CCC1CCCCN1C(=O)Cn1nc(-c2ccc(C)o2)cc(N)c1=O` (stereo unspecified), over 50.1 µM. For `Cn1nccc1-c1ccc2nc(C3CCN(CC4CC4)CC3)nn2c1` the value was over 30.2 µM.
